# Test results taken from patent EP0746567B1, “NOVEL OPIOID PEPTIDES FOR THE TREATMENT OF PAIN AND USE THEREOF” (AstraZeneca AB, priority 1994, dated 2002).
# Non-standard residues stand in square brackets, D forms with d. Residues, ends and D or L forms follow the SMILES beside them.
# System: hot plate response
# Assay: Hot plate test (central analgesia)
# Type: in vivo
# Settings: mouse hot plate test, even at doses of 100mg/kg
# Excerpt: It was thought that non-polar peptides pass more easily into the central nervous system than polar peptides by traversing the blood-brain barrier. […] This test is standard and known to persons skilled in the art. The test detects chemicals that exert a centrally mediated analgesic response.
# The term "ED50" as shown in table 1 for the PBQ writhing assays is defined as the dose of drug which induces a 50% reduction in the number of writhes observed compared to the control.
# PBQ (phenylbenzoquinone) induced writhing in mice is an assessment of both central and peripheral analgesia. For experimental protocol see Sigmund et al., Proc. Soc. Exp. Biol. Med., 95, p. 729 (1957). Central analgesia was determined by the inhibition of a hot plate response in mice. For experimental protocol see G. Woolfe and A. Macdonald, J. Pharmacol. Exp. Ther., 80, p.300 (1944). Assays measuring opioid receptor binding affinities for µ and δ receptors as well as GPI and MVD assays were determined through experimental protocol set out in Schiller et al., Biophys. Res. Commun., 85, p.1322 (1975). […]
# The mice were individually evaluated for reaction time on the hot plate. […]
# For each time reading, the average reaction time of the control group was multiplied by 1.5. […] The number of analgesic mice in a group determined the analgesic percentage of the compound for this reading.
smiles,measurement,value
"C[C@@H](NC(=O)[C@@H](N)Cc1ccc(O)cc1)C(=O)N[C@@H](Cc1ccccc1)C(=O)N[C@@H](Cc1ccccc1)C(N)=O [TAPP, H-Tyr-D-Ala-Phe-Phe-NH2] (H-Y[dA]FF-NH2)",analgesic effect,lack of analgesic effect
